Source: article PMC8279409, “Novel Mixed NOP/Opioid Receptor Peptide Agonists” (Journal of Medicinal Chemistry, 2021)
Where a SMILES comes first, the peptide text is derived from it. [ ]: non-standard residue; d: D form. Nle = CCCC[C@H](N)C(=O)O; Dab = NCC[C@H](N)C(=O)O; Nva = CCC[C@H](N)C(=O)O; Abu = CC[C@H](N)C(=O)O; Dap = NC[C@H](N)C(=O)O

Assays:
human mu receptor = target: T1, human mu receptor (Homo sapiens, UniProt P35372); test: Calcium mobilization, mu opioid receptor; format: cell-based; settings: for mu pEC50 (CL95%): CHO cells coexpressing human mu receptor and Gαqi5, Fluo-4 AM, 37 °C, mean of at least three experiments in duplicate, CL95% in brackets; for mu Emax ± S.E.M. / activation at 10 µM / Emax: percent over the baseline fluorescence; for mu Emax ± S.E.M. / Emax: mean ± SEM of at least three experiments in duplicate; for pEC50_mu: molecular formula strings CSV, repeats calcium mobilization values of Tables 1-3; for activation at 10 µM: read-out: mu effect at 10 μM (crc incomplete), Table 1 series, mean ± SEM; for activation at 10 µM / Emax: SEM; for Emax: read-out: mu Emax ± S.E.M, Table 1 series
T1 construct: expressed in transfected cells; host or cells: CHO cells stably coexpressing the receptor and chimeric Gαqi5

human NOP receptor = target: T2, human NOP receptor (Homo sapiens, UniProt P41146); test: Calcium mobilization, NOP receptor; format: cell-based; settings: for NOP pEC50 (CL95%) / NOP/mu CR (concentration ratio): Table 1 series; for NOP pEC50 (CL95%): CHO cells coexpressing human NOP and Gαqi5, Fluo-4 AM, FlexStation II, 37 °C, mean of at least three experiments in duplicate, CL95% in brackets; for NOP/mu CR (concentration ratio): calcium mobilization, NOP versus mu; for Emax: read-out: NOP Emax ± S.E.M., Table 1 series, maximum change in fluorescence as percent over the baseline fluorescence, mean ± SEM of at least three experiments in duplicate, SEM
T2 construct: expressed in transfected cells; host or cells: CHO cells stably coexpressing the receptor and chimeric Gαqi5
Method: CHO cells stably coexpressing the human NOP or kappa or the mu receptor and the C-terminally modified Gαqi5 and CHO cells coexpressing the delta receptor and the GαqG66Di5 protein were generated and cultured as described previously.[45],[46] Cells were maintained in Dulbecco’s modified Eagle’s medium/nutrient mixture F-12 (DEMEM/F-12) supplemented with 10% FBS, 100 U/mL penicillin and 100 μg/mL streptomycin, 100 μg/mL hygromicin B, and 200 μg/mL G418 and cultured at 37 °C in 5% CO2 humidified air. Cells were seeded at a density of 50,000 cells/well into 96-well black, clear-bottom plates. The following day, the cells were incubated with Hanks’ balanced salt solution (HBSS) supplemented with 2.5 mM probenecid, 3 μM of the calcium-sensitive fluorescent dye Fluo-4 AM, and 0.01% pluronic acid for 30 min at 37 °C. After that time, the loading solution was aspirated and 100 μL/well of HBSS supplemented with 20 mM HEPES, 2.5 mM probenecid, and 500 μM brilliant black was added. Serial dilutions were carried out in HBSS/HEPES (20 mM) buffer (containing 0.02% BSA fraction V). After placing both plates (cell culture and master plate) into the fluorometric imaging plate reader FlexStation II (Molecular Devices, Sunnyvale, CA), fluorescence changes were measured. On-line additions were carried out in a volume of 50 μL/well. To facilitate drug diffusion into the wells, the present studies were performed at 37 °C. Maximum change in fluorescence, expressed as percent over the baseline fluorescence, was used to determine agonist response.
The pharmacological terminology adopted in this paper is consistent with IUPHAR recommendations.[59] All data are expressed as the mean ± standard error of the mean (SEM) of at least three experiments performed in duplicate. […] Concentration-response curves to agonists were fitted to the classical four-parameter logistic nonlinear regression model:
Effect = Baseline + (Emax – Baseline)/(1 + 10^(LogEC50 – Log[compound]) × Hillslope). Curve fitting was performed using PRISM 6.0 (GraphPad Software Inc., San Diego).

T2 sequence (P41146 whole entry): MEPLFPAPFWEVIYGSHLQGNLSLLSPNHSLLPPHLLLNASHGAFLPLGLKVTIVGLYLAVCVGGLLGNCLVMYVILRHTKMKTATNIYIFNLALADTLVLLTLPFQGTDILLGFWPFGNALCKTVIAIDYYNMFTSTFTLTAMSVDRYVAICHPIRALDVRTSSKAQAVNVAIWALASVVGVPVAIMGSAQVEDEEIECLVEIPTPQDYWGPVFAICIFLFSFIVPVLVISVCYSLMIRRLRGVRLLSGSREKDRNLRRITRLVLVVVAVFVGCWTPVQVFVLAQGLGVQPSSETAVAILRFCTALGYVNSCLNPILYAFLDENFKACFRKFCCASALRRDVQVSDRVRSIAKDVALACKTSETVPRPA
T1 sequence (P35372 whole entry): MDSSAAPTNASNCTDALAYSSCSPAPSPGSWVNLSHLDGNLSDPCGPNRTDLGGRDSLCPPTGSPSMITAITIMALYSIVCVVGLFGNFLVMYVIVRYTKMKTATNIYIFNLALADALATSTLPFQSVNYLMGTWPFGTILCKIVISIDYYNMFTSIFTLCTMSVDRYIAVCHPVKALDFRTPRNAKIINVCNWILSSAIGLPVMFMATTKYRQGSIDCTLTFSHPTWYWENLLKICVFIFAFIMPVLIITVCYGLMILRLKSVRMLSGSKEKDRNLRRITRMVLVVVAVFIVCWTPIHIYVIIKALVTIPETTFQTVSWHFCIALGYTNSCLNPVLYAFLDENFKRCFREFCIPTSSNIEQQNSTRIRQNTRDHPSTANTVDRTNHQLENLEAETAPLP

Structure (SMILES)	mu pEC50 (CL95%) (human mu receptor; Table 1 series)	mu Emax ± S.E.M. (human mu receptor; Table 1 series)	mu pEC50 (CL95%) (human mu receptor; Table 2 series)	mu Emax ± S.E.M. (human mu receptor; Table 2 series)	mu pEC50 (CL95%) (human mu receptor; Table 3 series)	mu Emax ± S.E.M. (human mu receptor; Table 3 series)	pEC50_mu (human mu receptor)	NOP pEC50 (CL95%) (human NOP receptor)	NOP/mu CR (concentration ratio) (human NOP receptor)	Emax (human NOP receptor) [%]	activation at 10 µM (human mu receptor) [%]	Emax (human mu receptor) [%]
C[C@H](NC(=O)CNC(=O)[C@@H](NC(=O)[C@H](Cc1ccccc1)NC(=O)CNC(=O)CNC(=O)[C@@H](N)Cc1ccccc1)[C@@H](C)O)C(=O)N[C@@H](CCCNC(=N)N)C(=O)N[C@@H](CCCCN)C(=O)N[C@@H](CO)C(=O)N[C@@H](C)C(=O)N[C@@H](CCCNC(=N)N)C(=O)N[C@@H](CCCCN)C(N)=O [Compound 1, N/OFQ(1-13)NH2, reference compound]	inactive	inactive	inactive	inactive	inactive	inactive	inactive	–	–	–	–	–
CC[C@H](NC(=O)[C@H](Cc1ccccc1)NC(=O)CNC(=O)CNC(=O)[C@@H](N)Cc1ccc(O)cc1)C(=O)NCC(=O)N[C@@H](C)C(=O)N[C@@H](CCCNC(=N)N)C(=O)N[C@@H](CCCCN)C(=O)N[C@@H](CO)C(=O)N[C@@H](C)C(=O)N[C@@H](CCCNC(=N)N)C(=O)N[C@@H](CCCCN)C(N)=O [Compound 7, [Tyr^1,Abu^5]N/OFQ(1-13)-NH2] (H-YGGF[Abu]GARKSARK-NH2)	crc incomplete; 10 μM: 213 ± 37	–	–	–	–	–	crc incomplete	8.15 (7.61–8.69)	0.007	366 ± 20	213 ± 37	–
C[C@H](NC(=O)CNC(=O)[C@H](CN)NC(=O)[C@H](Cc1ccccc1)NC(=O)CNC(=O)CNC(=O)[C@@H](N)Cc1ccc(O)cc1)C(=O)N[C@@H](CCCNC(=N)N)C(=O)N[C@@H](CCCCN)C(=O)N[C@@H](CO)C(=O)N[C@@H](C)C(=O)N[C@@H](CCCNC(=N)N)C(=O)N[C@@H](CCCCN)C(N)=O [Compound 9, [Tyr^1,Dap^5]N/OFQ(1-13)-NH2] (H-YGGF[Dap]GARKSARK-NH2)	crc incomplete; 10 μM: 144 ± 44	–	–	–	–	–	crc incomplete	7.20 (6.95–7.45)	0.06	367 ± 9	144 ± 44	–
C[C@H](NC(=O)CNC(=O)[C@H](CCN)NC(=O)[C@H](Cc1ccccc1)NC(=O)CNC(=O)CNC(=O)[C@@H](N)Cc1ccc(O)cc1)C(=O)N[C@@H](CCCNC(=N)N)C(=O)N[C@@H](CCCCN)C(=O)N[C@@H](CO)C(=O)N[C@@H](C)C(=O)N[C@@H](CCCNC(=N)N)C(=O)N[C@@H](CCCCN)C(N)=O [Compound 10, [Tyr^1,Dab^5]N/OFQ(1-13)-NH2] (H-YGGF[Dab]GARKSARK-NH2)	crc incomplete; 10 μM: 41 ± 4	–	–	–	–	–	crc incomplete	6.43 (6.28–6.58)	0.37	340 ± 22	41 ± 4	–
CCCC[C@H](NC(=O)[C@H](Cc1ccccc1)NC(=O)CNC(=O)CNC(=O)[C@@H](N)Cc1ccc(O)cc1)C(=O)NCC(=O)N[C@@H](C)C(=O)N[C@@H](CCCNC(=N)N)C(=O)N[C@@H](CCCCN)C(=O)N[C@@H](CO)C(=O)N[C@@H](C)C(=O)N[C@@H](CCCNC(=N)N)C(=O)N[C@@H](CCCCN)C(N)=O [Compound 12, [Tyr^1,Nle^5]N/OFQ(1-13)-NH2] (H-YGGF[Nle]GARKSARK-NH2)	6.74 (6.15–7.33)	–	–	–	–	–	–	8.77 (8.45–9.09)	0.01	375 ± 9	–	323 ± 4
CCC[C@H](NC(=O)[C@H](Cc1ccccc1)NC(=O)CNC(=O)CNC(=O)[C@@H](N)Cc1ccc(O)cc1)C(=O)NCC(=O)N[C@@H](C)C(=O)N[C@@H](CCCNC(=N)N)C(=O)N[C@@H](CCCCN)C(=O)N[C@@H](CO)C(=O)N[C@@H](C)C(=O)N[C@@H](CCCNC(=N)N)C(=O)N[C@@H](CCCCN)C(N)=O [Compound 13, [Tyr^1,Nva^5]N/OFQ(1-13)-NH2] (H-YGGF[Nva]GARKSARK-NH2)	6.25 (5.59–6.91)	–	–	–	–	–	–	8.43 (7.55–9.31)	0.007	358 ± 14	–	313 ± 19
